Results reported in paper PMC6792352, “Limited Chemical Structural Diversity Found to Modulate Thyroid Hormone Receptor in the Tox21 Chemical Library” (Environmental Health Perspectives, 2019).
Counter-ions that a name gives are not always drawn.

Assay: in vitro
Conditions: rat, gh3-tre-luc cells

Structure (SMILES) | CC50 at 24 h (AC50 (uM) modified / 1000) | other results
CN1CCN(C(c2ccccc2)c2ccc(Cl)cc2)CC1 (centres unmarked) [Chlorcyclizine hydrochloride] | 4.39 µM | –
C[C@@H](CO)NC(=O)[C@@H]1C=C2c3cccc4[nH]cc(c34)C[C@H]2N(C)C1 [Ergonovine] | – | CC50 at 24 h (AC50 (uM) modified / 1000, Tox21_110001=Tox21_112022, viability, 1 nM T3 present, 24 h): > 50 µM
C=C(C)C(=O)OCCNC(C)(C)C [2-(tert-Butylamino)ethyl 2-methylprop-2-enoate] | > 90 µM | –
CCNS(=O)(=O)C(F)(F)C(F)(F)C(F)(F)C(F)(F)C(F)(F)C(F)(F)C(F)(F)C(F)(F)F [N-Ethylperfluorooctanesulfonamide] | > 90 µM | –
CC1(C)O[C@@H]2C[C@H]3[C@@H]4CCC5=CC(=O)CC[C@]5(C)[C@@]4(F)[C@@H](O)C[C@]3(C)[C@]2(C(=O)CCl)O1 [Halcinonide] | > 20 µM | –
Nc1nc(N)nc(Cl)n1 [2-Chloro-4,6-diamino-1,3,5-triazine] | – | CC50 at 24 h (AC50 (uM) modified / 1000, Tox21_110001=Tox21_301105, viability, 1 nM T3 present, 24 h): > 90 µM
Cc1ccc(S(=O)(=O)N=C=O)cc1 [p-Toluenesulphonyl isocyanate] | > 90 µM | –
CC(=O)O[C@H](CC(=O)[O-])C[N+](C)(C)C [Acetyl-L-carnitine hydrochloride] | > 90 µM | –
CCCCC(CC)COC(=O)c1ccccc1 (centres unmarked) [2-Ethylhexyl benzoate] | > 90 µM | –
CC1=NN(c2cc(Cl)c(S(=O)(=O)O)cc2Cl)C(=O)C1N=Nc1ccc(S(=O)(=O)O)cc1 (centres unmarked) [C.I. Acid Yellow 17, disodium salt] | 92.5 µM | –
C#CCN[C@@H]1CCc2ccccc21 [Rasagiline mesylate] | > 50 µM | –
Cc1cccc(C)c1O [2,6-Dimethylphenol] | > 90 µM | –
O=C(O)c1c(Cl)ccc(Cl)c1Cl [2,3,6-Trichlorobenzoic acid] | > 90 µM | –
O=[N+]([O-])c1ccc2ccc3cccc4ccc1c2c34 [1-Nitropyrene] | > 90 µM | –
CC/C=C\C/C=C\C/C=C\CCCCCCCC(=O)O [Linolenic acid] | > 90 µM | –
CC1(C)S[C@@H]2[C@H](NC(=O)[C@H](NC(=O)N3CCNC3=O)c3ccccc3)C(=O)N2[C@H]1C(=O)O [Azlocillin sodium] | > 20 µM | –
CCc1cccc(N(C)C(N)=Nc2cccc3ccccc23)c1 [Aptiganel hydrochloride] | 19.6 µM | –
COc1ccc(OC)cc1 [Hydroquinone dimethyl ether] | > 90 µM | –
O=C1CC[C@H](C(=O)N2CCCCC2)N1 [Fasoracetam] | > 50 µM | –
O=C1OCCO1 [1,3-Dioxolan-2-one] | > 100 µM | –

Structure (SMILES) | CC50 at 24 h (AC50 (uM) modified / 1000) | other results
O=C(Nc1ccccc1)OCC(CN1CCCCC1)OC(=O)Nc1ccccc1 (centres unmarked) [Diperodon hydrochloride] | 10.5 µM | –
CC1=NN(c2ccc(C(=O)O)cc2)C(=O)C1 [4-(3-Methyl-5-oxo-4,5-dihydro-1H-pyrazol-1-yl)benzoic acid] | > 90 µM | –
Cc1cc(CC(=O)O)c(C)n1-c1ccc(Cl)cc1 [Clopirac] | > 50 µM | –
S=C=Nc1cccc2ccccc12 [alpha-Naphylisothiocyanate] | > 90 µM | –
CC(=O)OC1C2(C)CCC(C2)C1(C)C (centres unmarked) [Fenchyl acetate] | > 90 µM | –
CCN(CC)CCNC(=O)COc1ccc(OC)cc1 [Mefexamide hydrochloride] | > 50 µM | –
CN[C@@H]1[C@@H](O)[C@@H](O[C@@H]2[C@@H](O)[C@H](O[C@H]3OC(CN)=CC[C@H]3N)[C@@H](N)C[C@H]2N)OC[C@]1(C)O [Sisomicin sulfate] | > 20 µM | –
C[C@H]1c2cccc(O)c2C(=O)C2=C(O)[C@]3(O)C(=O)C(C(N)=O)=C(O)[C@@H](N(C)C)[C@@H]3[C@@H](O)[C@@H]21 [Doxycycline hydrochloride] | > 50 µM | –
CC(N)[C@]12C[C@H]3C[C@H](C[C@H](C3)C1)C2 (some centres unmarked) [Rimantadine hydrochloride] | > 50 µM | –
O=C(O)CCC(=O)c1ccc(-c2ccccc2)cc1 [Fenbufen] | > 20 µM | –
C=C[C@]1(C)C[C@@H](OC(=O)CSCCN(CC)CC)[C@]2(C)[C@H](C)CC[C@]3(CCC(=O)[C@H]32)[C@@H](C)[C@@H]1O [Tiamulin] | 14.1 µM | –
COC(=O)C1CCC(C(=O)OC)CC1 (centres unmarked) [Dimethyl hexahydroterephthalate] | > 90 µM | –
O=C(O)CC(=O)C(=O)O [2-Oxobutanedioic acid] | > 90 µM | –
CC(C#N)(CCC(=O)O)N=NC(C)(C#N)CCC(=O)O (centres unmarked) [4,4'-Diazene-1,2-diylbis(4-cyanopentanoic acid)] | > 90 µM | –
C[C@H]1[C@H](OC(=O)CCC(=O)O)O[C@@H]2O[C@@]3(C)CC[C@H]4[C@H](C)CC[C@@H]1[C@@]24OO3 [Artesunate] | 2.69 µM | –
CCOc1ccc(N)cc1 [4-Ethoxyaniline] | – | CC50 at 24 h (AC50 (uM) modified / 1000, Tox21_110001=Tox21_201946, viability, 1 nM T3 present, 24 h): > 90 µM
CCCCCCCCCCCC[n+]1ccc2ccccc2c1 [2-Dodecylisoquinolinium tosylate] | 5.61 µM | –
NS(=O)(=O)c1cc(C2(O)NC(=O)c3ccccc32)ccc1Cl (centres unmarked) [Chlorthalidone] | > 20 µM | –
CC(C)N(C)C [Dimethylisopropylamine] | > 90 µM | –
C[N+](C)(C)CCCCCCCCCC[N+](C)(C)C [Decamethonium bromide] | > 50 µM | –

Structure (SMILES) | CC50 at 24 h (AC50 (uM) modified / 1000) | other results
CC(C)n1c(/C=C/[C@H](O)C[C@H](O)CC(=O)O)c(-c2ccc(F)cc2)c2ccccc21 (racemic) [Fluvastatin] | > 90 µM | –
CSc1nc(NC(C)C)nc(NC(C)C)n1 [Prometryn] | > 90 µM | –
Clc1ccc(CCC(Cn2ccnc2)Sc2c(Cl)cccc2Cl)cc1 (centres unmarked) [Butoconazole nitrate] | > 20 µM | –
O=C1O[C@H]([C@H](O)CO)C(O)=C1O [Isoascorbic acid] | > 90 µM | –
O=C(Cc1ccccc1)OCCc1ccccc1 [2-Phenylethyl phenylacetate] | – | CC50 at 24 h (AC50 (uM) modified / 1000, Tox21_110001=Tox21_300689, viability, 1 nM T3 present, 24 h): > 90 µM
CCC/C(=N\OCC)C1=C(O)CC(CC(C)SCC)CC1=O (centres unmarked) [Sethoxydim] | > 90 µM | –
CCC(CO)(CO)COCC(CC)(CO)CO [2,2'-(Oxydimethanediyl)bis(2-ethylpropane-1,3-diol)] | > 90 µM | –
C[N+](C)(C)C [Tetramethylammonium chloride] | – | CC50 at 24 h (AC50 (uM) modified / 1000, Tox21_110001=Tox21_200660, viability, 1 nM T3 present, 24 h): > 90 µM
CC(C)(C)NCCNC(C)(C)C [N,N'-Di-tert-butylethane-1,2-diamine] | > 90 µM | –
COC(=O)Cc1cccc2ccccc12 [Methyl 1-naphthaleneacetate] | > 90 µM | –
c1ccc(SSc2ccccc2)cc1 [Diphenyl disulfide] | > 90 µM | –
O=C1CCCCCCCCCCCC(=O)OCCO1 [1,4-Dioxacycloheptadecane-5,17-dione] | > 90 µM | –
CCN(CC)c1ccc(C(=C2C=CC(=[N+](CC)CC)C=C2)c2ccccc2)cc1 [Brilliant Green] | 0.384 µM | –
CCC(C(=O)NC(=O)NC(C)=O)c1ccccc1 (centres unmarked) [Acetylpheneturide] | > 50 µM | –
COC(=O)c1sccc1S(=O)(=O)NC(=O)Nc1nc(C)nc(OC)n1 [Thifensulfuron-methyl] | > 90 µM | –
Cc1c(N)cccc1N [2,6-Toluenediamine] | > 90 µM | –
C=C1/C(=C\C=C2/CCC[C@]3(C)[C@@H]([C@H](C)/C=C/[C@@H](O)C4CC4)CC[C@@H]23)C[C@@H](O)C[C@@H]1O [Calcipotriene] | 34.7 µM | –
COC(=O)C1=C(C)NC(C)=C(C(=O)OCCCN2CCC(c3ccccc3)(c3ccccc3)CC2)C1c1cccc([N+](=O)[O-])c1 (racemic) [(+/-) -Niguldipine hydrochloride (1:x)] | 12.3 µM | –
CC[N+](C)(CC)CCOC(=O)C(O)(c1ccccc1)c1ccccc1 [Benzactyzine methobromide] | > 50 µM | –
